By pEC50 is commonly meant the negative decadic logarithm of the EC50, by convention in mol/L. Lower therefore signals a large EC50.

Holding throughout (assay): cell-based
Common to all, as to parameters: species or system Hana3A

One assay concerns the target T1, hOR8K5 (Homo sapiens, UniProt Q8NH50).
T1 sequence (Q8NH50 1-307): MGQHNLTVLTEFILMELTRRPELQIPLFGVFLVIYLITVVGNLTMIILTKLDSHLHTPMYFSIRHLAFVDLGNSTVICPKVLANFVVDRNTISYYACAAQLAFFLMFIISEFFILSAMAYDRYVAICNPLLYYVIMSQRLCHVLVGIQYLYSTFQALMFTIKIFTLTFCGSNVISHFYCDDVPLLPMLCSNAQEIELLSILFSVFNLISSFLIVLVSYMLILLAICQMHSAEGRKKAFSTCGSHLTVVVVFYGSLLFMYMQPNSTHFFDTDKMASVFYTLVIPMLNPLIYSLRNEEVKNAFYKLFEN

Another assay deals with T2, hOR11H12 (Homo sapiens, UniProt B2RN74).
T2 sequence (B2RN74 1-326): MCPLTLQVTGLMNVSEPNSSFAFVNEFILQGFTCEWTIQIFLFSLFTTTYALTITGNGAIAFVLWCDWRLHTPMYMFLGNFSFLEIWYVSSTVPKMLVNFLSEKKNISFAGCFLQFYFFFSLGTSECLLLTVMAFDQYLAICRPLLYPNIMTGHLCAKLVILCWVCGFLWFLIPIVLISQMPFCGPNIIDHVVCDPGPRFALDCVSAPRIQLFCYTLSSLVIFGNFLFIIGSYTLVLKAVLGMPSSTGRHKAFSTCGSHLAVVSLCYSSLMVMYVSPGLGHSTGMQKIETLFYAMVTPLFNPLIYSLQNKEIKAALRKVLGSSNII

For the next assay, the target named is T3, hOR5R1 (Homo sapiens, UniProt Q8NH85).
T3 sequence (Q8NH85 1-324): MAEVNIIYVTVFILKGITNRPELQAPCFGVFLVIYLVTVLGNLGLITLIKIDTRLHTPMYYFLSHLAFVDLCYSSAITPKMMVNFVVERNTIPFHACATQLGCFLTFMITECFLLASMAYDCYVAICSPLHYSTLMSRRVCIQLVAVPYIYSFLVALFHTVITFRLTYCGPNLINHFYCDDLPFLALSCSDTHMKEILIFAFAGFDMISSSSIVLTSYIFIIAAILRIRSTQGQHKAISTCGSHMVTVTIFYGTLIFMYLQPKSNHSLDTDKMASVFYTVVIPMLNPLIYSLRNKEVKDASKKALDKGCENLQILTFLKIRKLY

A further assay concerns the target T4, hOR8B2 (Homo sapiens, UniProt Q96RD0).
T4 sequence (Q96RD0 1-313): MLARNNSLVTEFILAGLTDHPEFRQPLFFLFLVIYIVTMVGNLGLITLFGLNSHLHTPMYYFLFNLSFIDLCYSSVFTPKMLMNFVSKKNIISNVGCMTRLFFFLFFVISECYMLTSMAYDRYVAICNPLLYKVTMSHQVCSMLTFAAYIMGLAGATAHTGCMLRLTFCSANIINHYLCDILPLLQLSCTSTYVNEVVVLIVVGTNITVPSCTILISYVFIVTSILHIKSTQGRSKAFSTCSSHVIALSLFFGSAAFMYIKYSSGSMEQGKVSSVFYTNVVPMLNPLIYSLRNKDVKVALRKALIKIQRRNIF

pEC50: −log10 of the molar value.

In the case of `O=c1ccc2ccccc2o1` [coumarin], the pEC50 is < 3.00 at hOR8K5, 4.04 at hOR11H12, 4.99 on hOR5R1 and < 3.00 on hOR8B2.
With `C=C(C)[C@@H]1CC=C(C)C(=O)C1` [R-carvone], the pEC50 on hOR8K5 is 5.35; at hOR11H12, 4.79; at hOR5R1, 4.92; at hOR8B2, < 3.00.
As to `CC(=O)c1ccccc1` [acetophenone], the pEC50 is < 3.00 on hOR8K5, 5.33 at hOR11H12, 5.47 at hOR5R1 and < 3.00 at hOR8B2.
In the case of `O=C1CCOc2ccccc21` [4-chromanone], the negative-log EC50 (pEC50) on hOR8K5 is < 3.00; on hOR11H12, < 3.00; at hOR5R1, 3.66; on hOR8B2, 4.82.

The values above are taken from paper doi:10.1101/2020.01.06.895540v1 (biorxiv, 2020).
